Patent US20170066780A1, “INHIBITORS OF EZH2” (Eli Lilly and Company, priority 2015, published 2017)

Key:
[1] = molecular target: mut 5-mer EZH2 (EZH2 Y641N, PRC2 complex) (Homo sapiens, UniProt Q15910, Y641N); experiment: EZH2 Y641N mut 384-well biochemical assay (SPA, 3H-SAM)
Protocol: The purpose of this assay is to measure the compound effect on the catalytic activity of EZH2 WT/Y641N in the context of the PRC2 complex.
Express FLAG-tagged EZH2 or EZH2 Y641N as the PRC2 5-membered (5-mer) complex consisting of EZH2, EED, SUZ12, RBBP4 and AEBP proteins using a baculovirus expression system in Sf9 cells, and purify using FLAG® Affinity Purification (Sigma-Aldrich).
Place 20 μL 100% DMSO in dilution wells. Perform 3× serial dilutions by transferring 10 μL from one well to the next. […] In the WT assay, dispense 15 μL of the enzyme/tri-methyl H3 co-activator peptide mix into the assay plate, followed by 5 μL of the biotin H3 peptide substrate/^3H-SAM mix. Seal the plates and shake for 2 hr at RT. […] Plot normalized data and render curves using […] ® Condoseo as % inhibition (y axis) vs. log compound concentration (x-axis), and determine IC50 values using a 4-parameter nonlinear logistic fitting algorithm.

[2] = tested on: cell tri-methylated H3K27 in Karpas-422 (EZH2 Y641N) cells; experiment: H3K27Me3 cell-based ELISA, Karpas-422; conditions: Homo sapiens; Karpas-422, 48 hr
Protocol: The purpose of this assay is to evaluate the ability of a compound to inhibit the functional activity of EZH2 in cells, via measurement of levels of cell tri-methylated H3K27. Plate Karpas-422 (EZH2 Y641N) cells at 5,000 cells/100 μL/well in black 96-well BD BIOCOAT® Cellware, Poly-Lysine plates (BD Biosciences, Cat#354640). Prepare compound plates in a NUNC™ 96-Well Polypropylene MICROWELL™ Plate (Thermo Scientific Cat# #249944) with the addition of 40 μL/well of 10 mM compound (representing starting final concentration of 20 μM) or 40 μL DMSO, then prepare serial dilutions through the transfer of 20 μL from one well to the next. Add 5 μL of test compound to 245 μL/well of growth media in a separate NUNC™ 96-Well Polypropylene MICROWELL™ Plate, and stamp 11 μL of the compound/media mix onto the cell plates. Place cell plates in a 37° C. incubator for 48 hr. Remove plates from the incubator, place the plates at room temperature for 15-20 min, and spin down the plates at 1000 rpm for 5 min Fix cells with 30 μL 16% paraformaldehyde for 15 min at RT. Remove the paraformaldehyde and permeabilize cells with 100 μL/well PBS minus calcium or magnesium (−/−) containing 0.1% TRITON® X-100 for 20 min at RT. Wash plates with PBS (−/−) (2×), followed by incubation for 2 hr at RT of 50 μL/well of primary antibody solution (Diagenode anti-H3K27me3 MAb-181-050; 1:3000 dilution in PBS plus calcium and magnesium (+/+) containing 1% BSA). Wash plates with PBS−/−, (3×) followed by incubation with 50 μL/well secondary antibody solution (Invitrogen goat anti-mouse IgG Alexa 488, Cat# A11001; 1:1000 dilution in PBS+/+) for 1 hr at RT in the dark. Wash plates with PBS−/−, (3×), followed by adding 50 μL/well of 5 μg/mL propidium iodide (Invitrogen; Cat# p3566) staining solution in PBS containing 200 μg/mL RNase (Invitrogen; Cat#12091021). Cover plates with black plate seals and scan on ACUMEN® laser scanning cytometer (TTP Lab Tech) with Ex 488 nm/Em 505 nm-530 nm (H3K27m3 signal) and LP655 nm (cell nuclear signal). […]

TOV-112D = experiment: Ovarian cancer cell line proliferation assay (CellTiter-Glo); format: cell-based; conditions: Homo sapiens, TOV112D, 240 h, 7- or 10-day assay
Protocol: (§1) Test ovarian cancer cell lines for response to Example 1 or Example 38 in a 7- or 10-day proliferation assay. Optimize each cell line for cell number and splitting schedule which maximizes log phase growth in 96-well format during the 7 or 10-day period. Plate cells in a 96-well black, clear bottom, poly-D-lysine-coated 96-well plate (BD BioSciences; BD BIOCOAT™ Cellware, Poly-Lysine, Cat. #354640) on day 0 in a total volume of 90 μL cell culture media and incubate at 37° C./5% CO2 for 18-24 hrs. On day 1, prepare a compound dilution plate by the addition of 150 μL media containing 2% dimethyl sulfoxide (DMSO; Sigma-Aldrich Cat. #D2438) to columns 3-12 of a 96-well clear flat bottom plate (CORNING® COSTAR® cell culture plate Cat #3596). Prepare 10 mM stocks of Example 1 or Example 38 in 100% DMSO, and further dilute to a working concentration of 200 μM in cell culture media. Add 225 μL of Example 1 or Example 38 to column 2 of the compound dilution plate, and prepare 1:3 10-point serial dilutions of test compound with columns 3 through 12. Add 10 μL of serially diluted compound to cell plates, giving a final test compound concentration range of 1 nM to 20 μM and a final concentration of DMSO of 0.2%. At the end of the 7- or 10-day assay period, subject cells to the CELLTITER-GLO® Luminescent Cell Viability Assay (Promega, Cat. #G7570) as follows: 1) Thaw the CELLTITER-GLO® buffer and equilibrate to room temperature; 2) Equilibrate the lyophilized CELLTITER-GLO® substrate to room temperature; 3) Transfer CELLTITER-GLO® buffer to substrate bottle to form the CELLTITER-GLO® reagent; 4) Equilibrate cell plates to room temperature; 5) For adherent cells only—remove medium from cell plates; 6) Add 25 μL CELLTITER-GLO® reagent to each well; 7) Let plates incubate an additional 20-30 min at room temperature; 8) Read luminescence using the Perkin Elmer EnVision 2104 Multi Detection Microplate Reader.

COV-434 = experiment: as above; format: cell-based; conditions: COV434, 240 h, 7- or 10-day assay
Protocol: as §1

SKOV3 = experiment: as above; format: cell-based; conditions: Homo sapiens, SK-OV-3, 240 h, 7- or 10-day assay
Protocol: as §1

HEC59 = experiment: as above; format: cell-based; conditions: 240 h, 7- or 10-day assay
Protocol: as §1

OVCAR3 = experiment: as above; format: cell-based; conditions: Homo sapiens, OVCAR-3, 240 h, 7- or 10-day assay
Protocol: as §1

HeyA8 = experiment: as above; format: cell-based; conditions: HEY A8, 240 h, 7- or 10-day assay
Protocol: as §1

Caov-3 = experiment: as above; format: cell-based; conditions: Homo sapiens, 240 h, 7- or 10-day assay
Protocol: as §1

A2780 = experiment: as above; format: cell-based; conditions: Homo sapiens, 240 h, 7- or 10-day assay
Protocol: as §1

TOV-21G = experiment: as above; format: cell-based; conditions: Homo sapiens, TOV21G, 240 h, 7- or 10-day assay
Protocol: as §1

Sequence of mut 5-mer EZH2 (EZH2 Y641N, PRC2 complex) (Q15910 whole entry Y641N): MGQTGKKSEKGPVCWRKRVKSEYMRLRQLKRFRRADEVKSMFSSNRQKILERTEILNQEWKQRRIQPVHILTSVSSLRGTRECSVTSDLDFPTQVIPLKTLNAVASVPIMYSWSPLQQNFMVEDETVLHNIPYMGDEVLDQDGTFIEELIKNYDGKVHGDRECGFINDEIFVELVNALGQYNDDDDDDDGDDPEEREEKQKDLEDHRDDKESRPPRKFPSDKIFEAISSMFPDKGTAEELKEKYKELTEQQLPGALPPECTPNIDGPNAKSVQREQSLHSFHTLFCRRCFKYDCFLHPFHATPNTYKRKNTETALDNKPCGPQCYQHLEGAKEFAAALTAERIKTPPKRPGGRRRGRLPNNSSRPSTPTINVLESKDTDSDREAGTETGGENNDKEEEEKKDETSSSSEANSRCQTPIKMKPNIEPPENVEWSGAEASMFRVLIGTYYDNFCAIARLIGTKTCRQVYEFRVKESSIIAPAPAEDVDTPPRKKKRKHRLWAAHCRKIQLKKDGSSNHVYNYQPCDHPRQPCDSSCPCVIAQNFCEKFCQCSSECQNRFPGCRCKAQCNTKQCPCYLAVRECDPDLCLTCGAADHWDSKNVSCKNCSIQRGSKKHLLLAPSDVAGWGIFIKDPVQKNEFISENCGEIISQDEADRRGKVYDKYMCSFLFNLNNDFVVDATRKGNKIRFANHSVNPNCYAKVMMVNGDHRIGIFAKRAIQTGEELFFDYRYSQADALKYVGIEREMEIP
Sequence of mut 5-mer EZH2 (EZH2 Y641N, PRC2 complex) (O75530 whole entry partner): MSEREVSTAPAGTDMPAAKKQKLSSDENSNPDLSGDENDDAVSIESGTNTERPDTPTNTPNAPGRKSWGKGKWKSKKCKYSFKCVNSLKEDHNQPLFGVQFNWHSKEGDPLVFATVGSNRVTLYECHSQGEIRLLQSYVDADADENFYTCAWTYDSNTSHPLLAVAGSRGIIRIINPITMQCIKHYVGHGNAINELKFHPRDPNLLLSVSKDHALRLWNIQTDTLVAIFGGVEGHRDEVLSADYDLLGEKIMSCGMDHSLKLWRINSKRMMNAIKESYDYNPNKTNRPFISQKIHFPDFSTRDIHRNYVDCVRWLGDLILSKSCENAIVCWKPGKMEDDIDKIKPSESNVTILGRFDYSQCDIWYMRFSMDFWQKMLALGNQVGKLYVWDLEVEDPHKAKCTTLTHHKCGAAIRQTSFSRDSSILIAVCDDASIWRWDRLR
Sequence of mut 5-mer EZH2 (EZH2 Y641N, PRC2 complex) (Q15022 whole entry partner): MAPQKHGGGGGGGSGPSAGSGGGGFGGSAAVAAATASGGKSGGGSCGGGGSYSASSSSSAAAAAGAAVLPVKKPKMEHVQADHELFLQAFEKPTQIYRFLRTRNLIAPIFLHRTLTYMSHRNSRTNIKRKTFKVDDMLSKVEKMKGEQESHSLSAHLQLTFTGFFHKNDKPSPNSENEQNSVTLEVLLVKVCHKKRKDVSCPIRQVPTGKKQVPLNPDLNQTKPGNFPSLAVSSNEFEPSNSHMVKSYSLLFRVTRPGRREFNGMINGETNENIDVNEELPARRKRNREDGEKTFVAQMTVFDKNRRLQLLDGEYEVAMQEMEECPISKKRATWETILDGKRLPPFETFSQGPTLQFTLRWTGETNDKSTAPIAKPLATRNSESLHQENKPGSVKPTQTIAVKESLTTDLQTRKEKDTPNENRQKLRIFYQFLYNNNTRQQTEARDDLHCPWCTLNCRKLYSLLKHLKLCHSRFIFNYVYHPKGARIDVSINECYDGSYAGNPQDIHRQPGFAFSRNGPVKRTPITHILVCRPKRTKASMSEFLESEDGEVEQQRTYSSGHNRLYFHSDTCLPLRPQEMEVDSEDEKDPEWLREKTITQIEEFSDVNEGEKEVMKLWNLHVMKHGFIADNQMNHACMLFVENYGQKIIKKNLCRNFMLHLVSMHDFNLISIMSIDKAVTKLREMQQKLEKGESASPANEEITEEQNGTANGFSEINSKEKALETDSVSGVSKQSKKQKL
Sequence of mut 5-mer EZH2 (EZH2 Y641N, PRC2 complex) (Q09028 whole entry partner): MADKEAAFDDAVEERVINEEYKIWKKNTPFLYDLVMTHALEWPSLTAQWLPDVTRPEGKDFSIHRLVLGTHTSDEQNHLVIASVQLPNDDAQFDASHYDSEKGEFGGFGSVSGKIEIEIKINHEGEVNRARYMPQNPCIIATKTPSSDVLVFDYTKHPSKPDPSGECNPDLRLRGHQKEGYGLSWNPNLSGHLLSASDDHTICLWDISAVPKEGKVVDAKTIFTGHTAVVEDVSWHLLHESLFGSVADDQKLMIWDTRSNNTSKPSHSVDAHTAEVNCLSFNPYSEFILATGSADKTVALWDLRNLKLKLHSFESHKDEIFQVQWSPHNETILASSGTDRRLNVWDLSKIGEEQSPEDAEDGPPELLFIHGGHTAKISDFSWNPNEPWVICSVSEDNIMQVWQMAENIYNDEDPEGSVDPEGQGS
Sequence of mut 5-mer EZH2 (EZH2 Y641N, PRC2 complex) (Q6ZN18 whole entry partner): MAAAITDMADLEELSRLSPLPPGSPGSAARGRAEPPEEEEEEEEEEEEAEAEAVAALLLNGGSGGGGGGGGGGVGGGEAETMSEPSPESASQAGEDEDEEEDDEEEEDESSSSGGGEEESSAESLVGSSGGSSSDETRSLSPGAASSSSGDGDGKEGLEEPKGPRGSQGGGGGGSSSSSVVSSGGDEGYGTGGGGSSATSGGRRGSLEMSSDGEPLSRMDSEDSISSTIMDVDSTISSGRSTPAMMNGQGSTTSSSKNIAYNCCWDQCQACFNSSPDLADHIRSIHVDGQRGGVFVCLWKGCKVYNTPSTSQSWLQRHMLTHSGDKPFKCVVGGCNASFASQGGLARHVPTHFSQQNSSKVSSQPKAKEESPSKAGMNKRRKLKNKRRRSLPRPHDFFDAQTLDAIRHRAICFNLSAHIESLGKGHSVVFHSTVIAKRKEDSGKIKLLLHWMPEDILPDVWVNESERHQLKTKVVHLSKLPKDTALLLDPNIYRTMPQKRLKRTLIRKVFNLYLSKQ

IC50 [1] [nM] | SMILES | IC50 [2] [nM] | IC50 (TOV-112D) [nM] | IC50 (COV-434) [nM] | IC50 (SKOV3) [nM] | IC50 (HEC59) [nM] | IC50 (OVCAR3) [nM] | IC50 (HeyA8) [nM] | IC50 (Caov-3) [nM] | IC50 (A2780) [nM] | IC50 (TOV-21G) [nM]
2.11 ± 0.58 | COC1CN([C@H]2CC[C@H]([C@@H](C)c3sc4c(c3C)C(=O)N(Cc3c(C)cc(C)[nH]c3=O)CC4)CC2)C1 [Example 1, 5-[(4,6-Dimethyl-2-oxo-1,2-dihydropyridin-3-yl)methyl]-2-{(1R)-1-[trans-4-(3-methoxyazetidin-1-yl)cyclohexyl]ethyl}-3-methyl-6,7-dihydrothieno[3,2-c]pyridin-4(5H)-one] | 23.6 ± 20.5 |  |  |  |  |  |  |  |  | 
 | COC1CN([C@H]2CC[C@H]([C@@H](C)c3sc4c(c3C)C(=O)N(Cc3c(C)cc(C)[nH]c3=O)CCC4)CC2)C1 [Example 38, 5-[(4,6-Dimethyl-2-oxo-1,2-dihydropyridin-3-yl)methyl]-2-{(1R)-1-[trans-4-(3-methoxyazetidin-1-yl)cyclohexyl]ethyl}-3-methyl-5,6,7,8-tetrahydro-4H-thieno[3,2-c]azepin-4-one] | 0.00973 ± 0.00956 | 200 | 20 | > 20000 | > 20000 | 8600 | > 20000 | 8000 | 200 | 100
